Test results as given in patent US20230255954A1, “INTERLEUKIN 33 (IL-33) INHIBITION FOR TREATMENT OF CANCER, FIBROSIS AND INFLAMMATION” (The General Hospital Corporation, priority 2020, published 2023).

Experiments:
Format in all cases: cell-based, mouse
[1] = system: Il33 expression induced by Poly (I:C) in Pam212 cells; experiment: Il33 RNA by qPCR in Poly (I:C)-treated Pam212 cells
Protocol: Pam212 cells were grown at 37° C. in DMEM (Thermo Fisher Scientific, Waltham, Mass., catalog no. 11995065) supplemented with 10% fetal bovine serum (Thermo Fisher Scientific, catalog no. 26140079), 1× penicillin-streptomycin-glutamine (Thermo Fisher Scientific, catalog no. 10378016), 1×MEM non-essential amino acids solution (Thermo Fisher Scientific, catalog no. 11140050), 1×HEPES (Thermo Fisher Scientific, catalog no. 15630080) and 0.1% 2-Mercaptoethanol (Thermo Fisher Scientific, catalog no. 21985023). […]
Mouse dorsal skin samples were homogenized and lysed in RLT lysis solution (QIAGEN, catalog no. 79216)/0.1% MeOH using Mini-BeadBeater-8 (BioSpec Products, Inc., Bartlesville, Okla.). Total RNA was extracted using an RNeasy micro kit and quantified using NanoDrop ND-1100 (NanoDrop Technologies, Wilmington, Del.). cDNA samples were synthesized from 1 μg of total RNA using Invitrogen SuperScripts III Reverse Transcriptase (Thermo Fisher Scientific, catalog no. 18080085). Expression levels of all cDNA samples were determined with LightCycler 480 system (Roche Molecular Systems Inc., Pleasanton, Calif.) using TaqMan Universal Master Mix II (Thermo Fisher Scientific, catalog no. 44-400-40). […]

[2] = system: IL-33 protein in PyMT cells; experiment: IL-33 protein levels in PyMT cells (western blot); conditions: dose range
Protocol: Pam212 cells were grown at 37° C. in DMEM (Thermo Fisher Scientific, Waltham, Mass., catalog no. 11995065) supplemented with 10% fetal bovine serum (Thermo Fisher Scientific, catalog no. 26140079), 1× penicillin-streptomycin-glutamine (Thermo Fisher Scientific, catalog no. 10378016), 1×MEM non-essential amino acids solution (Thermo Fisher Scientific, catalog no. 11140050), 1×HEPES (Thermo Fisher Scientific, catalog no. 15630080) and 0.1% 2-Mercaptoethanol (Thermo Fisher Scientific, catalog no. 21985023). PyMT cell lines (derived from a primary breast tumor of MMTV-PyMrg mouse on a C57BL/6 background) were grown at 37° C. in RPMI Medium 1640 (Thermo Fisher Scientific, catalog no. 11875093) supplemented with 10% fetal bovine serum, 1× penicillin-streptomycin-glutamine and 0.1% 2-Mercaptoethanol. IL-33 promoter-luci vector (GeneCopoeia, Rockville, Md., catalog no. MPRM3494-PG02) or Control-luci vector (deletion form of IL-33 promoter region from IL-33 promoter-luci vector) or Poly (I:C) (Invivogen, San Diego, Calif., catalog no. tlrl-pic) in Pam212 cells were performed using Lipofectamine 2000 (Thermo Fisher Scientific, catalog no. 11668019) according to the manufacturer's instructions.
Cell lysates were prepared in LIPA buffer (Thermo Fisher Scientific, catalog no. 89900) consisting of 1× protease inhibitor cocktail, EDTA-free (Thermo Fisher Scientific, catalog no. A32955). […]

[3] = system: p-IRF3; experiment: Poly (I:C) induced p-IRF3 expression in Pam212 cells; conditions: Pam212 cells with Poly (I:C)
Protocol: Cell lysates were prepared in LIPA buffer (Thermo Fisher Scientific, catalog no. 89900) consisting of 1× protease inhibitor cocktail, EDTA-free (Thermo Fisher Scientific, catalog no. A32955). Mice tissues were meshed and lysed by 0.1% TWEEN-(Millipore Sigma, catalog no. P1379) in PBS. Mice tissues were frozen by liquid nitrogen and thaw by incubation at 37° C. for further lysis. Cell lysates were sonicated for […], and then they were centrifugated at 13,200 rpm. After checking the protein concentration of each sample, the same amount of proteins was loaded into Mini-PROTEIN TGX™ Gels (BIO-RAD, Hercules, Calif., catalog no. 456-1083 or 456-1086) with 1× Tris/Glycine/SDS buffer (BIO-RAD, catalog no. 1610732). A few minutes later (according to protein size), they were transferred to Immobilon-P membrane (Millipore Sigma, catalog no. IPVH00010) with Transfer buffer (Boston Bioproducts, Ashland, Mass., catalog no. BP-190). Then, they were incubated 3% bovine serum albumin (Thermo Fisher Scientific, catalog no. BP1600) or 5% Skim milk (BD biosciences, San Jose, Calif., catalog no. 232100) in 1× Tris-Buffered Saline (Boston Bioproducts, catalog no. BM301X) containing 0.1% TWEEN, called TBS-T for 30 min. After the membrane was washed with TBS-T, they were subjected to immunoblot with proper antibodies for overnight at 4° C. […]

O=C(O)C[C@H](O)C[C@H](O)/C=C/c1c(C2CC2)nc2ccccc2c1-c1ccc(F)cc1 [pitavastatin]
decreased: Il33 RNA level [1] | endogenous IL-33 protein level [2] | level of p-IRF3 [3]
